Laboratory results from ChEMBL document CHEMBL1201862, “PubChem BioAssay data set” (2004).
Calls of active or inactive are those of the source.

Tests used:
[1] = A cytotoxicity screen of small molecule inhibitors of the PhoP region in Salmonella typhi identified in the primary screen. [Related pubchem assays: 1850, 1864, 1985 ]; type: functional
[2] = target: T1, Long-chain-fatty-acid--AMP ligase FadD28 (Mycobacterium tuberculosis, UniProt P9WQ59); assay: Fluorescence polarization aasay to screen for inhibitors that compete for the binding of FadD28 to a bisubstrate Measured in Biochemical System Using Plate Reader - 2147-01_Inhibitor_Dose_CherryPick_Activity.; type: functional, Mycobacterium tuberculosis H37Rv
T1 sequence (P9WQ59 whole entry): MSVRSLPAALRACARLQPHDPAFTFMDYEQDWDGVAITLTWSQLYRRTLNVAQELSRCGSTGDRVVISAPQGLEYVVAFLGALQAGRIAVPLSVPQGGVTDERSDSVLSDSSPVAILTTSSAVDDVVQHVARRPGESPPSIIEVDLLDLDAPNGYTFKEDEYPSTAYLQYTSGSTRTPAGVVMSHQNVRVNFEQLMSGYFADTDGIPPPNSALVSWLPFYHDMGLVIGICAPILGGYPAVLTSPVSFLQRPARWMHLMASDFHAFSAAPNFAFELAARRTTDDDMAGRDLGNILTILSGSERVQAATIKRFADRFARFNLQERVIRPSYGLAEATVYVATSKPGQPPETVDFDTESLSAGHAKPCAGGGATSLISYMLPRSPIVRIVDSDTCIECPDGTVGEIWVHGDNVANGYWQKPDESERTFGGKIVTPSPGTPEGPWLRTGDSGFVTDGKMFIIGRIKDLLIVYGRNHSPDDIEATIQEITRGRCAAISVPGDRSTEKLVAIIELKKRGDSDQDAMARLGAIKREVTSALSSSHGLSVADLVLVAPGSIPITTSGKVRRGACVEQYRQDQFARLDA

[3] = target: Ras and Rab interactor 1/Tyrosine-protein kinase ABL1 (Homo sapiens, UniProt P00519+Q13671); type: functional;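 note: biochemical TR-FRET dose-response test measuring inhibition of binding between Rin1 and Abl proteins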
[4] = tested on: P388; assay: cells; type: functional
[5] = tested on: P388/ADR; assay: cells; type: functional
[6] = tested on: SN12K1; assay: cells; type: functional
[7] = intracellular Trypanosoma cruzi inhibitors in host cells – cell-based, plate reader, cherry-pick samples, set 3, dose response (AID 651818); type: functional;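 note: compounds incubated with infected cells for about four days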
[8] = CEM21 lymphoblast cell cytotoxicity, dose response, cytotoxicity control for viral fusion inhibitor project, CellTiter-Glo luminescence, cherry-picked (AID 652042); type: functional, cell-based;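 note: potency for signal decrease meaning cytotoxicity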
[9] = inhibitors of clade B AD8 Env fusion, dose response, cell-based, cherry-pick (AID 652062); type: functional;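 note: luciferase signal from cell-cell fusion driven by HIV-1 clade B AD8 Env; potency is for inhibitors of fusion seen as a drop in luminescence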
[10] = ZM109 Env clade C HIV-1 fusion inhibitors, dose response, HeLa effector, CEM target cells, luciferase, cherry-pick (AID 652058); type: functional, cell-based
[11] = P. falciparum ATP4 D1247Y mutant growth inhibitors, dose response, NITD609-resistant line, SYBR Green, dry powder (AID 1159571); type: functional, cell-based;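 note: parasites synchronized at ring stage by sorbitol before testing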
[12] = P. falciparum Dd2 growth inhibitors, dose response, SYBR Green, cherry-picked samples (AID 1159567); type: functional, cell-based
[13] = P. falciparum 3D7-ScDHODH growth inhibitors, dose response, SYBR Green, dry powder samples (AID 1159570); type: functional, cell-based;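 note: parasite growth measured after 72 hours of compound exposure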
[14] = P. falciparum Dd2 growth inhibitors, dose response, SYBR Green, dry powder samples (AID 1159566); type: functional, cell-based;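 note: potency for growth inhibition with lower SYBR green DNA signal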
[15] = target: T2, Zinc finger protein mex-5 (Caenorhabditis elegans, UniProt Q9XUB2); assay: MEX-5/TCR-2 RNA interaction inhibitors, dose response, biochemical, C. elegans, fluorescence polarization (AID 1960)
T2 sequence (Q9XUB2 whole entry): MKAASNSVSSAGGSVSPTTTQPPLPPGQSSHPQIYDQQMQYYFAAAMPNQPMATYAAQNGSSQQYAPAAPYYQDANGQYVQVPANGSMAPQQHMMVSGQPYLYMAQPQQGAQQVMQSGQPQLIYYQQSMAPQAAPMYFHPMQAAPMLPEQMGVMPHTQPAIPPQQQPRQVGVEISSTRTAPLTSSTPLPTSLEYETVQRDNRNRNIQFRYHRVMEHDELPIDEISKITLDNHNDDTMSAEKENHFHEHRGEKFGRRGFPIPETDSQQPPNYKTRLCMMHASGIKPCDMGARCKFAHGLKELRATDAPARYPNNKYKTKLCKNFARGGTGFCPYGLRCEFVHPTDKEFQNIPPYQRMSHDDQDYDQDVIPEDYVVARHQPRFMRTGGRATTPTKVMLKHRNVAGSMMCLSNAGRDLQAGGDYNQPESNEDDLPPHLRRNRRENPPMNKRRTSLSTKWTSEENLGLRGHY

[16] = target: FAD-linked sulfhydryl oxidase ALR (Homo sapiens, UniProt P55789); assay: inhibitors of human ALR sulfhydryl oxidase, dose response, biochemical, H2O2 detection, luminescence, cherry-pick (AID 493248)
[17] = target: Glucose-6-phosphate 1-dehydrogenase (Homo sapiens, UniProt P11413); assay: human G6PD enzyme inhibitors, dose response, selectivity assay for P. falciparum G6PD inhibitor project, biochemical, fluorescence (AID 504792); type: functional
[18] = target: T3, RNA-binding protein pos-1 (Caenorhabditis elegans, UniProt G5EF15); assay: inhibitors of POS-1/mex-3 RNA binding, dose response, biochemical, fluorescence polarization (AID 1964);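 note: purified POS-1 fused to maltose binding protein made in E. coli; potency of compounds blocking POS-1 binding to fluorescent RNA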
T3 sequence (G5EF15 whole entry): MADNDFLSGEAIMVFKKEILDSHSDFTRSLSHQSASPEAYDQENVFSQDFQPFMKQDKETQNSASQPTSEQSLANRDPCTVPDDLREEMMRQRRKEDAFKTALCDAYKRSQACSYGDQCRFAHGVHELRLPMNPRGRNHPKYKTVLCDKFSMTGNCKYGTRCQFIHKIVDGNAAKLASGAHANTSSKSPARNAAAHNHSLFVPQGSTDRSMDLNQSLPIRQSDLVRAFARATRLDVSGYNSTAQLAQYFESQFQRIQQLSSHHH

[19] = target: Large T antigen (Simian virus 40, UniProt P03070); type: functional, Betapolyomavirus macacae;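 note: Confirmatory-stage PubChem screen for compounds that inhibit SV40 T antigen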
Chain of Large T antigen (P03070 whole entry): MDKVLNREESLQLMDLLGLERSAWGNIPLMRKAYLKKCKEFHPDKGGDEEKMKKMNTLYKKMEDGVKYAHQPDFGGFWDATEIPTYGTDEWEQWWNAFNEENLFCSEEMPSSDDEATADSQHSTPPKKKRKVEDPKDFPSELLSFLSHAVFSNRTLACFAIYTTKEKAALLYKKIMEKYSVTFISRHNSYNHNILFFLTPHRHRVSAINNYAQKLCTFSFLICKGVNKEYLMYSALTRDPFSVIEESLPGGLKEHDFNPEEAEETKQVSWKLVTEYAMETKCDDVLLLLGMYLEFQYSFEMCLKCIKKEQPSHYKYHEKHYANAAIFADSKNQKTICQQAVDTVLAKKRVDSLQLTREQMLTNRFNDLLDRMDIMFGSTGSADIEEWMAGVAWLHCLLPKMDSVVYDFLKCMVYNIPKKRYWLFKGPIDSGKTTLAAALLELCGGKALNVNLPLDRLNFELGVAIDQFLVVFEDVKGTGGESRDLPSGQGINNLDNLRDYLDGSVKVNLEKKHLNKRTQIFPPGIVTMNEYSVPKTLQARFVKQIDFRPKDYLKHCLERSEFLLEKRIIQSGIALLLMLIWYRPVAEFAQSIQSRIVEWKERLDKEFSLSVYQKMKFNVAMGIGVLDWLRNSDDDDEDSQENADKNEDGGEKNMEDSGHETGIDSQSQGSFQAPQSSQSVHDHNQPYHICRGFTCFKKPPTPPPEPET

Chain of Ras and Rab interactor 1/Tyrosine-protein kinase ABL1 (P00519 whole entry): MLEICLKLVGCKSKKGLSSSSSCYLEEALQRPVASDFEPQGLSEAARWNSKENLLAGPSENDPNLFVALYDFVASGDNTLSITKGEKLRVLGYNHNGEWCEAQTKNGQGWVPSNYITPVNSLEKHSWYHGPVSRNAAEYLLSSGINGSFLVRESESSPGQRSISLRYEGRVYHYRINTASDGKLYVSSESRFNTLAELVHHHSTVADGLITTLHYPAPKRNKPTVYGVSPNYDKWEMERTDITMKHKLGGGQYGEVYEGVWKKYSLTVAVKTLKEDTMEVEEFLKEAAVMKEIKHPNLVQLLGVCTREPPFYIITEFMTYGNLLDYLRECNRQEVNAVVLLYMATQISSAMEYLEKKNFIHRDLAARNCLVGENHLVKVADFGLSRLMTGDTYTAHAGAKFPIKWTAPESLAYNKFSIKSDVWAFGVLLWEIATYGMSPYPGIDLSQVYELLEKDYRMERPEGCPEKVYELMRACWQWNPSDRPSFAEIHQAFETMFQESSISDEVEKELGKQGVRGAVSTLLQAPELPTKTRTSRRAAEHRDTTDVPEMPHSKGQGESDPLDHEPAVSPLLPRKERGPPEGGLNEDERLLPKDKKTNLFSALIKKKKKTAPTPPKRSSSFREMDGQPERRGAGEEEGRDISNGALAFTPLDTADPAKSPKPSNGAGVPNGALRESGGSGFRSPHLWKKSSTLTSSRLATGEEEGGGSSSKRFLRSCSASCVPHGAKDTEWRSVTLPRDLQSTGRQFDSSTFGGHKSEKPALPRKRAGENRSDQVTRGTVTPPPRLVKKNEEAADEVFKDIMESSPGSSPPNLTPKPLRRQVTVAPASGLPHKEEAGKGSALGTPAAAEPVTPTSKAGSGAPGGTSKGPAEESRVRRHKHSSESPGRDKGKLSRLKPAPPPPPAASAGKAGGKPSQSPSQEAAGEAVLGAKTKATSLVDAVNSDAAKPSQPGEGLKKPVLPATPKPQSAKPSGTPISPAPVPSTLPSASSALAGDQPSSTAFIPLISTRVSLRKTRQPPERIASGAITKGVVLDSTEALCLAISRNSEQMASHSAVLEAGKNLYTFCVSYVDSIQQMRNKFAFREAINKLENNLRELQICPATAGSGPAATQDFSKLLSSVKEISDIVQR
Chain of Ras and Rab interactor 1/Tyrosine-protein kinase ABL1 (Q13671 whole entry): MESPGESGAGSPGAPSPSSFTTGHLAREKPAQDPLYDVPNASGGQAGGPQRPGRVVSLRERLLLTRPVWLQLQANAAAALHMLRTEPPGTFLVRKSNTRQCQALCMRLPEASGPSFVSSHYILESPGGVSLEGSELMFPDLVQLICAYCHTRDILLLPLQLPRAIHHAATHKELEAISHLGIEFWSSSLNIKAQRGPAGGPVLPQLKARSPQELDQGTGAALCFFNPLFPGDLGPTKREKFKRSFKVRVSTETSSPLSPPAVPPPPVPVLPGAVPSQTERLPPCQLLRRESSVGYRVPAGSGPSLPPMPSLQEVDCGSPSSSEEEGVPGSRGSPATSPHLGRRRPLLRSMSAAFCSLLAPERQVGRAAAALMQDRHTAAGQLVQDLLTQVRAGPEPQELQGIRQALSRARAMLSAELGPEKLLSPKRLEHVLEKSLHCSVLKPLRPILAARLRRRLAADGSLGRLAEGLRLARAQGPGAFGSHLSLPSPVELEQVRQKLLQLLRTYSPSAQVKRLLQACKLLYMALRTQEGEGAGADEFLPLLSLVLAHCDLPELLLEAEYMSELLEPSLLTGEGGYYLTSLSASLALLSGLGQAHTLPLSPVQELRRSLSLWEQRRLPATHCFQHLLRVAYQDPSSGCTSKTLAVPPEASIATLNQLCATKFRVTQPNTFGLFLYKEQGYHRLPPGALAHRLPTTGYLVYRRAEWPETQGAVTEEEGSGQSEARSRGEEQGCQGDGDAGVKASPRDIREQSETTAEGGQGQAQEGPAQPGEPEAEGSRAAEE
Chain of FAD-linked sulfhydryl oxidase ALR (P55789 whole entry): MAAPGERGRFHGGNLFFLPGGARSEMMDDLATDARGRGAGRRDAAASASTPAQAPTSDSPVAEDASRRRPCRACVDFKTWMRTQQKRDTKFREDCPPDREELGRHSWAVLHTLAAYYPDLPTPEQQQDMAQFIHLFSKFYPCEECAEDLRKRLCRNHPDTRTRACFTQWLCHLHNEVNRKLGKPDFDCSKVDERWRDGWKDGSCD
Chain of Glucose-6-phosphate 1-dehydrogenase (P11413 whole entry, the tested form may be a part): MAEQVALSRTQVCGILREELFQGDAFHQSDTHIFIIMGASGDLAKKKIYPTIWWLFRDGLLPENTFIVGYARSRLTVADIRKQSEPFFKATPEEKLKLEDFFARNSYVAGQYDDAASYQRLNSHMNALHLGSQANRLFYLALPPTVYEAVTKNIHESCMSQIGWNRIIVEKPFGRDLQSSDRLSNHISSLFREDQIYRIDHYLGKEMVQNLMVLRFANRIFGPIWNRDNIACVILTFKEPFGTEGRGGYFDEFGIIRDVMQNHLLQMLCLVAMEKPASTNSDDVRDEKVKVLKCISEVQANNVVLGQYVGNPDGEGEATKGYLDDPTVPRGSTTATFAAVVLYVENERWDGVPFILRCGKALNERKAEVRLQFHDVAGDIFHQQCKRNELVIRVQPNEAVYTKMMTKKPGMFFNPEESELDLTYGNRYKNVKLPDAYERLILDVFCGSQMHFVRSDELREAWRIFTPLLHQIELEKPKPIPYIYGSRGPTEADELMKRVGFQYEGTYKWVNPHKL

## c1cc(N2CCCC2)ccc1C(c1nnnn1C1CCCCC1)N1CCOCC1 (centres undefined)
[1]
  EC50: > 50 µM (active)

## Cc1cccc(NC(=O)Cn2c(=O)oc3cc(S(=O)(=O)N4CCCC4)ccc32)n1
[2]
  AC50: 34.8 µM (active)

## CN(C(=O)c1ccc(NC(=O)Cc2ccc(NC(=O)C3CCN(C(=O)C4CCCC4)CC3)cc2)cc1)C1CCCC1
[3]
  IC50: 12.6 µM (inactive)

## O=C1CCCn2c3ccccc3c3ccnc1c32
[4]; Mus musculus, P388
  GI50: 22.6 µM (inactive)
[5]; Mus musculus, P388/ADR
  GI50: 20 µM (inactive)
[6]; Homo sapiens, SN12K1
  GI50: 39.9 µM (inactive)

## Nc1cc2c(cc1[N+](=O)[O-])[nH]c1c(-c3ccccc3)nccc12
[4]; Mus musculus, P388
  GI50: 17.2 µM (inactive)
[5]; Mus musculus, P388/ADR
  GI50: 17.7 µM (inactive)
[6]; Homo sapiens, SN12K1
  GI50: 20.7 µM (inactive)

## Cn1sc2ccccc2c1=S
[4]; Mus musculus, P388
  GI50: 0.294 µM (active)
[5]; Mus musculus, P388/ADR
  GI50: 0.441 µM (active)
[6]; Homo sapiens, SN12K1
  GI50: 2.79 µM (inactive)

## O=P1(Oc2ccc(Cl)cc2Cl)Oc2ccc3ccccc3c2-c2c(ccc3ccccc23)O1
[4]; Mus musculus, P388
  GI50: 33.3 µM (inactive)
[5]; Mus musculus, P388/ADR
  GI50: 51.4 µM (inactive)
[6]; Homo sapiens, SN12K1
  GI50: 20.7 µM (inactive)

## OCCCNc1ncnc2c1ncn2[C@H]1CN(Cc2ccc(-c3ccccc3)cc2)C[C@@H](CO)O1
[3]
  IC50: 20.6 µM (inactive)

## C[C@H](CO)N1C[C@H](C)[C@H](CN(C)Cc2ccc(-c3ccccc3)cc2)Oc2c(NC(=O)NC3CCCCC3)cccc2C1=O
[7]
  AC50: 3.38 µM (active)

## C[C@H]1CN([C@@H](C)CO)C(=O)c2cc(NS(=O)(=O)c3ccccc3)ccc2O[C@@H]1CN(C)Cc1ccc(-c2ccccc2)cc1
[7]
  AC50: 6.29 µM (active)

## C[C@@H]1CN([C@@H](C)CO)C(=O)c2cccc(NC(=O)c3nc4ccccc4s3)c2O[C@H]1CN(C)Cc1ccc(C(=O)Nc2ccccc2N)cc1
[7]
  AC50: 2.09 µM (active)

## Cc1ccc(S(=O)(=O)N(C)C[C@@H]2Oc3cc(C#CC4CCCC4)ccc3S(=O)(=O)N([C@H](C)CO)C[C@H]2C)cc1
[8]
  AC50: 61.4 µM (active)
[9]
  AC50: 35.2 µM (active)
[10]
  AC50: 2.34 µM (active)

## COc1ccc2[nH]c3c(C)c4cc[n+](C)cc4c(C)c3c2c1
[4]
  GI50: 0.796 µM (active)
[5]
  GI50: 47.4 µM (inactive)
[6]
  GI50: 0.287 µM (active)

## CC(C)(C)[S+]([O-])N1Cc2cc(C(=O)NCc3ccc(Oc4ccccc4)cc3)nc(-c3cccc(-c4cccc(F)c4)c3)c2[C@@H]1CCO (some centres undefined)
[11]
  AC50: 417 nM (active)
[12]
  AC50: 1.23 µM (active)
[13]
  AC50: 831 nM (active)
[14]
  AC50: 658 nM (active)

## CCCN1CCc2cccc3c2[C@H]1Cc1ccc(O)c(O)c1-3
[15]
  EC50: 3.12 µM (active)
[16]
  AC50: 9 nM (active)
[17]
  IC50: > 80 µM (inactive)
[18]
  EC50: 5.56 µM (active)
[19]
  IC50: 29.7 µM (active)
